We go through ten compounds from patent publication US9527896B2, “Stabilized p53 peptides and uses thereof” (DANA-FARBER CANCER INSTITUTE, INC., priority 2007, dated 2016).

One series in a line: circular dichroism. Conditions: water; pH 7.0; 20 °C; 10-50 uM. (Circular dichroism is widely used to follow secondary structure.)
A further series concerns the target T1, HDM2 (Homo sapiens, UniProt Q00987).
T1 construct: Co-Immunoprecipitation of FITC-SAH-p53 Peptides and Endogenous HDM2; endogenous in cells; host or cells: SJSA-1 osteosarcoma cells
The experiment in a line: Kd (nM). The text has this: The patent's description of the figure: FIGS. 1A-1F Synthesis, Sequence, and Biochemical Analysis of SAH-p53 Peptides. FIG. 1A Non-natural amino acids were synthesized as described and cross-linked by ruthenium-catalyzed ring-closing olefin metathesis. […] Note: UAH-p53-8 is the “unstapled” form of SAH-p53-8.

A further series addresses T2, HDM217-125 (Homo sapiens, UniProt Q00987).
T2 construct: plasmid encoding HDM217-125 with an N-terminal hexahistidine tag; hexahistidine tag (N, cleaved yes); thrombin cleavage site (N, cleaved yes); made in house; host or cells: Escherichia coli BL21 (DE3)
The experiment in a line: Fluorescence polarization binding assay, FITC-peptides and HDM217-125. Conditions: FITC-labeled derivatives. The protocol:
FIG. 10 Fluorescence polarization binding assay of stapled peptides. Fluoresceinated peptides (5 nM) were incubated with recombinant HDM217-125 (25 pM-10 μM) at room temperature. Binding activity was measured by fluorescence polarization, and Kd values were obtained by […].
A fluorescence polarization binding assay was used to assess binding of peptides to HDM217-125. Fluoresceinated peptides (5 nM) were incubated with recombinant HDM217-125 (25 pM-10 μM) at room temperature. Binding activity was measured by fluorescence polarization, and KD values were obtained by […].
Purified HDM217-125 was prepared as follows. […]
and a thrombin cleavage site were cultured in kanamycin- and chloramphenicol-containing Luria Broth and induced with 0.1 mM isopropyl β-D-thiogalactoside (IPTG). […] Purity of the protein was assessed by SDS-PAGE, FPLC and MALDI-TOF and determined to be >90%. […]
Fluoresceinated compounds (LT=5-25 nM) were incubated with HDM217-125 in binding assay buffer (140 mM NaCl, 50 mM, Tris pH 8.0) at room temperature. Binding activity was measured by fluorescence polarization on a Perkin-Elmer LS50B luminescence spectrophotometer using a cuvette containing a stirbar or a Spectramax M5 Microplate Reader (Molecular Devices). Kd values were determined by nonlinear regression analysis of dose response curves using Prism software 4.0 Graphpad. […]
Background: Fluorescence polarisation rises when a labelled molecule tumbles more slowly, as on binding a larger partner.

The nature of series [1]: Ex vivo protease stability in serum. Type of series: in vitro ADME, mouse. The method, then:
FIG. 5 To determine whether SAH-p53 peptides have increased proteolytic stability, the wild type p5314-29 peptide and SAH-p53-4 were exposed to serum ex vivo.
To assess the protease stability of the peptides, fluoresceinated peptides (2.5 μg) were incubated with fresh mouse serum (20 μL) at 37° C. for 0-24 hours. The level of intact fluoresceinated compound was determined by flash freezing the serum specimens in liquid nitrogen, lyophilization, extraction in 1:1 CH3CN:H2O containing 0.1% TFA, followed by HPLC-based quantitation using fluorescence detection at excitation/emission settings of 495/530 nm.

Series [2] deals with SJSA-1 cells.
Text: After washing with PBS, the cells were fixed in 4% paraformaldehyde, washed with PBS, and treated with DAPI-containing (nuclear counterstain) Vectashield mounting medium (Vector), coverslipped and imaged by confocal microscopy (BioRad 1024 or Nikon E800).
Series [3] relates to SJSA-1 cells. The format is cell-based. As to conditions: 24 h.
Experimental: SJSA-1 osteosarcoma cells (4×10^5 cells per well) were incubated in 96-well plates and treated with p53 peptides in serum-free media for 4 hours, followed by serum replacement and additional incubation for 20 hours. Cell viability was assayed by addition of CellTiter-Glo™ bioluminescence reagent (Promega) and reading luminescence in a Spectramax M5 microplate reader (Molecular Devices). The extent of apoptosis was measured through the detection of caspase-3 activity by exposing the cells to a caspase-3-specific substrate (Oncogene). Fluorescence as a result of substrate cleavage was measured in a Spectramax M5 microplate reader (Molecular Devices).
The subject of series [4] is SJSA-1 cells. Type of series: cell-based. Conditions: 24 h. The source holds these as a separate data set.
Experimental: The cells were then exposed to a caspase-3 specific substrate (Ac-DEVD-AMC ('DEVD' disclosed as SEQ ID NO: 7)). Fluorescence as a result of cleavage was measured in a microplate reader. To determine the specificity of the activity, certain peptides were incubated alongside DEVD-CHO ('DEVD' disclosed as SEQ ID NO: 7), a substrate known to inhibit caspase-3 specifically. The effect of various peptides on caspase-3 activation was examined as follows. […] The cells were then exposed to a caspase-3 specific substrate. Fluorescence as a result of cleavage was measured in a microplate reader. To determine the specificity of the activity, certain peptides were incubated alongside DEVD-CHO ('DEVD' disclosed as SEQ ID NO: 7), a substrate known to inhibit caspase-3 specifically. […] Cell viability was assayed by addition of CellTiter-GloTM bioluminescence reagent (Promega) and reading luminescence in a Spectramax M5 microplate reader (Molecular Devices). The extent of apoptosis was measured through the detection of caspase-3 activity by exposing the cells to a caspase-3-specific substrate (Oncogene). Fluorescence as a result of substrate cleavage was measured in a Spectramax M5 microplate reader (Molecular Devices).

The structures appear in SMILES notation. Like-named read-outs stand apart in the source and are kept apart here. Bridge positions count the residues as written; N and C are the ends. Square brackets hold non-standard residues; d marks the D form. Peptide text beside a SMILES is read from it. R8 = C=CCCCCCC[C@@](C)(N)C(=O)O; S5 = C=CCCC[C@](C)(N)C(=O)O; βAla = NCCC(=O)O A value given as a limit tells only on which side of the number the result lay.

T1 sequence (Q00987 whole entry, looked up): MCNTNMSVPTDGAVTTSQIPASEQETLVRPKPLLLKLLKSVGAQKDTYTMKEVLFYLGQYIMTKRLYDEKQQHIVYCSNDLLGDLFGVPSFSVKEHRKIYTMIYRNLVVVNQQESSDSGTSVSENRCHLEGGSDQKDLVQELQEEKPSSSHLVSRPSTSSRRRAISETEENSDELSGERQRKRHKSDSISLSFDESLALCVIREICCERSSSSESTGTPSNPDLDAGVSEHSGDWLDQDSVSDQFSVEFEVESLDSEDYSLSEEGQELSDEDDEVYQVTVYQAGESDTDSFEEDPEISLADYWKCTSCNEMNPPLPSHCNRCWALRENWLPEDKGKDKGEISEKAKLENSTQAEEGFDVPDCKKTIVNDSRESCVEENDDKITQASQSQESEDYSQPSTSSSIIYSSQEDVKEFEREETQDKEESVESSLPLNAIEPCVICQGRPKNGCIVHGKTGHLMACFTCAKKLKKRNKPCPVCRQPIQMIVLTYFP
T2 sequence (Q00987 17-125 limits assumed): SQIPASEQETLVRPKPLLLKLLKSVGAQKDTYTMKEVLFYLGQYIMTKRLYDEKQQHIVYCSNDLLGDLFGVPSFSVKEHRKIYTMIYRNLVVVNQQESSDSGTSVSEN

With `CC(=O)NCCC(=O)N[C@@H](CC(C)C)C(=O)N[C@@H](CO)C(=O)N[C@@H](CCC(N)=O)C(=O)N[C@@H](CCC(=O)O)C(=O)N[C@H](C(=O)N[C@@H](Cc1ccccc1)C(=O)N[C@@H](CO)C(=O)N[C@@H](CC(=O)O)C(=O)N[C@@H](CC(C)C)C(=O)N[C@@H](Cc1c[nH]c2ccccc12)C(=O)N[C@@H](CCCCN)C(=O)N[C@@H](CC(C)C)C(=O)N[C@@H](CC(C)C)C(=O)N1CCC[C@H]1C(=O)N[C@@H](CCC(=O)O)C(=O)N[C@@H](CC(N)=O)C(N)=O)[C@@H](C)O`, in “circular dichroism”, the helicity turned out to be 11%.
In the case of `CC(=O)NCCC(=O)N[C@@H](CC(C)C)C(=O)N[C@@H](CO)C(=O)N[C@@H](CCC(N)=O)C(=O)N[C@@H](CCC(=O)O)C(=O)N[C@]1(C)CCCCCCC=CCCC[C@@](C)(C(=O)N[C@@H](CC(C)C)C(=O)N2CCC[C@H]2C(=O)N[C@@H](CCC(=O)O)C(=O)N[C@@H](CC(N)=O)C(N)=O)NC(=O)[C@H](CCCCN)NC(=O)[C@H](Cc2c[nH]c3ccccc23)NC(=O)[C@H](CC(C)C)NC(=O)[C@H](CC(=O)O)NC(=O)[C@H](CO)NC(=O)[C@H](Cc2ccccc2)NC1=O` (Ac-[βAla]LSQE[R8]FSDLWK[S5]LPEN-NH2; staple 6-13), in “circular dichroism”, the helicity worked out at 10%.
The same measure, in the same setting: under `CC(=O)NCCC(=O)N[C@@H](CC(C)C)C(=O)N[C@@H](CO)C(=O)N[C@@H](CCC(N)=O)C(=O)N[C@]1(C)CCCCCCC=CCCC[C@@](C)(C(=O)N[C@@H](CC(C)C)C(=O)N[C@@H](CC(C)C)C(=O)N2CCC[C@H]2C(=O)N[C@@H](CCC(=O)O)C(=O)N[C@@H](CC(N)=O)C(N)=O)NC(=O)[C@H](Cc2c[nH]c3ccccc23)NC(=O)[C@H](CC(C)C)NC(=O)[C@H](CC(=O)O)NC(=O)[C@H](CO)NC(=O)[C@H](Cc2ccccc2)NC(=O)[C@H]([C@@H](C)O)NC1=O` (Ac-[βAla]LSQ[R8]TFSDLW[S5]LLPEN-NH2; staple 5-12) stands 12%.
One may read the Kd as the equilibrium constant for the complex coming apart. Read a low Kd as tighter binding. In turn, `CC(=O)NCCC(=O)N[C@@H](CC(C)C)C(=O)N[C@@H](CO)C(=O)N[C@@H](CCC(N)=O)C(=O)N[C@@H](CCC(=O)O)C(=O)N[C@H](C(=O)N[C@@H](Cc1ccccc1)C(=O)N[C@@H](CO)C(=O)N[C@@H](CC(=O)O)C(=O)N[C@]1(C)CCCCCCC=CCCC[C@@](C)(C(N)=O)NC(=O)[C@H](CCC(=O)O)NC(=O)[C@@H]2CCCN2C(=O)[C@H](CC(C)C)NC(=O)[C@H](CC(C)C)NC(=O)[C@H](CCCCN)NC(=O)[C@H](Cc2c[nH]c3ccccc23)NC1=O)[C@@H](C)O` [SAH-p53-1] (Ac-[βAla]LSQETFSD[R8]WKLLPE[S5]-NH2; staple 10-17) displayed a helicity in “circular dichroism” of 25%. On HDM2, this compound yielded a Kd of 100 ± 8 nM.
In the case of `CC(=O)NCCC(=O)N[C@@H](CC(C)C)C(=O)N[C@@H](CO)C(=O)N[C@@H](CCC(N)=O)C(=O)N[C@@H](CCC(=O)O)C(=O)N[C@H](C(=O)N[C@@H](Cc1ccccc1)C(=O)N[C@]1(C)CCCCCCC=CCCC[C@@](C)(C(=O)N[C@@H](CCC(=O)O)C(=O)N[C@@H](CC(N)=O)C(N)=O)NC(=O)[C@H](CC(C)C)NC(=O)[C@H](CC(C)C)NC(=O)[C@H](CCCCN)NC(=O)[C@H](Cc2c[nH]c3ccccc23)NC(=O)[C@H](CC(C)C)NC(=O)[C@H](CC(=O)O)NC1=O)[C@@H](C)O` [SAH-p53-4], the helicity in the series “circular dichroism” stood at 59%. For the same compound, the HDM2 binding affinity entry at HDM217-125 is on record as “subnanomolar”. For the same compound, the Kd at HDM2 is 0.92 ± 0.11 nM. Moreover, the proteolytic stability result in series [1] was “improved proteolytic stability”. Besides, in series [1] (exposed to serum ex vivo), the “serum half-life (t1/2) compared with unmodified wild type peptide” value is “almost four times longer”.
In the series “circular dichroism”, `CC(=O)NCCC(=O)N[C@@H](CC(C)C)C(=O)N[C@@H](CO)C(=O)N[C@@H](CCC(N)=O)C(=O)N[C@@H](CCC(=O)O)C(=O)N[C@H](C(=O)N[C@@H](Cc1ccccc1)C(=O)N[C@]1(C)CCCCCCC=CCCC[C@@](C)(C(=O)N[C@@H](CCC(N)=O)C(=O)N[C@@H](CC(N)=O)C(N)=O)NC(=O)[C@H](CC(C)C)NC(=O)[C@H](CC(C)C)NC(=O)[C@H](CCCCN)NC(=O)[C@H](Cc2c[nH]c3ccccc23)NC(=O)[C@H](CC(C)C)NC(=O)[C@H](CC(N)=O)NC1=O)[C@@H](C)O` [SAH-p53-5] (Ac-[βAla]LSQETF[R8]NLWKLL[S5]QN-NH2; staple 8-15) had a helicity of 20%. On HDM2, this compound displayed a Kd of 0.8 ± 0.05 nM.
In the same order, the values of `CC(=O)NCCC(=O)N[C@@H](CCC(N)=O)C(=O)N[C@@H](CO)C(=O)N[C@@H](CCC(N)=O)C(=O)N[C@@H](CCC(N)=O)C(=O)N[C@H](C(=O)N[C@@H](Cc1ccccc1)C(=O)N[C@]1(C)CCCCCCC=CCCC[C@@](C)(C(=O)N[C@@H](CCC(N)=O)C(=O)N[C@@H](CC(N)=O)C(N)=O)NC(=O)[C@H](CC(C)C)NC(=O)[C@H](CC(C)C)NC(=O)[C@H](CCCCN)NC(=O)[C@H](Cc2c[nH]c3ccccc23)NC(=O)[C@H](CC(C)C)NC(=O)[C@H](CC(N)=O)NC1=O)[C@@H](C)O` [SAH-p53-7] (Ac-[βAla]QSQQTF[R8]NLWKLL[S5]QN-NH2; staple 8-15) are 36% and 50 ± 10 nM.
As to `CC(=O)NCCC(=O)N[C@@H](CCC(N)=O)C(=O)N[C@@H](CO)C(=O)N[C@@H](CCC(N)=O)C(=O)N[C@@H](CCC(N)=O)C(=O)N[C@H](C(=O)N[C@@H](C)C(=O)N[C@]1(C)CCCCCCC=CCCC[C@@](C)(C(=O)N[C@@H](CCC(N)=O)C(=O)N[C@@H](CC(N)=O)C(N)=O)NC(=O)[C@H](CC(C)C)NC(=O)[C@H](CC(C)C)NC(=O)[C@H](CCCNC(=N)N)NC(=O)[C@H](Cc2c[nH]c3ccccc23)NC(=O)[C@H](CC(C)C)NC(=O)[C@H](CC(N)=O)NC1=O)[C@@H](C)O` [SAH-p53-8F19A] (Ac-[βAla]QSQQTA[R8]NLWRLL[S5]QN-NH2; staple 8-15; N-terminus and C-terminus assumed), the cellular fluorescence entry in the series on SJSA-1 cells [2] is listed as “Cellular fluorescence was observed”. Further, in the series “circular dichroism”, the helicity came to 39%. Besides, on HDM2, the Kd was above 4000 nM.
By EC50 is commonly meant the concentration that produces a half-maximal response. Read a high EC50 as a need for much substance. `CC(=O)NCCC(=O)N[C@@H](CCC(N)=O)C(=O)N[C@@H](CO)C(=O)N[C@@H](CCC(N)=O)C(=O)N[C@@H](CCC(N)=O)C(=O)N[C@H](C(=O)N[C@@H](Cc1ccccc1)C(=O)N[C@]1(C)CCCCCCC=CCCC[C@@](C)(C(=O)N[C@@H](CCC(N)=O)C(=O)N[C@@H](CC(N)=O)C(N)=O)NC(=O)[C@H](CC(C)C)NC(=O)[C@H](CC(C)C)NC(=O)[C@H](CCCNC(=N)N)NC(=O)[C@H](Cc2c[nH]c3ccccc23)NC(=O)[C@H](CC(C)C)NC(=O)[C@H](CC(N)=O)NC1=O)[C@@H](C)O` [SAH-p53-8]: the EC50 was 8800 nM in the series on SJSA-1 cells [3] and 5800 nM in the series with SJSA-1 cells [4]. The cellular fluorescence result in the series on SJSA-1 cells [2] is on record as “Cellular fluorescence was observed”. For the same compound, in “circular dichroism”, the helicity turned out to be 85%. The same compound returned a Kd at HDM2 of 55 ± 11 nM.
`C=CCCCCCC[C@@](C)(NC(=O)[C@H](Cc1ccccc1)NC(=O)[C@@H](NC(=O)[C@H](CCC(N)=O)NC(=O)[C@H](CCC(N)=O)NC(=O)[C@H](CO)NC(=O)[C@H](CCC(N)=O)NC(=O)CCNC(C)=O)[C@@H](C)O)C(=O)N[C@@H](CC(N)=O)C(=O)N[C@@H](CC(C)C)C(=O)N[C@@H](Cc1c[nH]c2ccccc12)C(=O)N[C@@H](CCCNC(=N)N)C(=O)N[C@@H](CC(C)C)C(=O)N[C@@H](CC(C)C)C(=O)N[C@@](C)(CCCC=C)C(=O)N[C@@H](CCC(N)=O)C(=O)N[C@@H](CC(N)=O)C(N)=O` [UAH-p53-8, Ac-QSQQTF*NLWRKK*QN-NH2] displayed a helicity in the series “circular dichroism” of 36%.
